Data from patent US10670605B2, “Cysteine reactive probes and uses thereof” (The Scripps Research Institute, priority 2015, dated 2020).
Counter-ions that a name gives are not always drawn.

What was measured:
Test in all cases: isoTOP-ABPP of compound-treated primary human T cells
Format in all cases: cell-based
[1] = molecular target: T1, Cys residues in primary human T cells (Homo sapiens, UniProt O14920); conditions: IKBKB C464 (O14920)
T1 sequence (O14920 1-756): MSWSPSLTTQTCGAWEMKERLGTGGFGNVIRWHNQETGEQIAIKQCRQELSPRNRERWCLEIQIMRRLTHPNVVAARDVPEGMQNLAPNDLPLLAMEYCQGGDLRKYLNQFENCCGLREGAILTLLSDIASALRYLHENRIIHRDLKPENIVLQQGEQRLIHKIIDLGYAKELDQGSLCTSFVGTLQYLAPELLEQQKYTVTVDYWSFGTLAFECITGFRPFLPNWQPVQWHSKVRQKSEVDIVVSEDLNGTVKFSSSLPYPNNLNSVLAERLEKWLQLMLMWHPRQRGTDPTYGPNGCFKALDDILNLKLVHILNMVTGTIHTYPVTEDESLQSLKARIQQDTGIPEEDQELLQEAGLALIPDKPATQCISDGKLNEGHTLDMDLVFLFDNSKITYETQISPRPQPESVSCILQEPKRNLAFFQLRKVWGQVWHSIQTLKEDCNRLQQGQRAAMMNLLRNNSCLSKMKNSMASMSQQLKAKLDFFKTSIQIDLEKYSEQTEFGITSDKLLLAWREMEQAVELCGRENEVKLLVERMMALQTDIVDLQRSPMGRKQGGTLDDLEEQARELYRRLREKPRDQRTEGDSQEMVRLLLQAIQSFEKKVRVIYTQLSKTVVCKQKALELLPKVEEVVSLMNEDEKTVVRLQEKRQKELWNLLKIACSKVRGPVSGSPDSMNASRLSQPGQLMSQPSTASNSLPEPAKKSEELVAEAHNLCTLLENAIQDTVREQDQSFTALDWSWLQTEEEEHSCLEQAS

[2] = molecular target: Cys residues in primary human T cells (Homo sapiens, UniProt O14933); conditions: UBE2L6 C98 (O14933)
Sequence of Cys residues in primary human T cells (Homo sapiens, UniProt O14933) (O14933 whole entry): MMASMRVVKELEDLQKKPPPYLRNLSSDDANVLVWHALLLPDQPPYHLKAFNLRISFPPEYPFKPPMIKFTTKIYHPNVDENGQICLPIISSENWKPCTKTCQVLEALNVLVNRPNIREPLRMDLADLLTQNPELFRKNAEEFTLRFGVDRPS

[3] = molecular target: T2, Cys residues in primary human T cells (Homo sapiens, UniProt O95336); conditions: PGLS C32 (095336)
T2 sequence (O95336 1-258): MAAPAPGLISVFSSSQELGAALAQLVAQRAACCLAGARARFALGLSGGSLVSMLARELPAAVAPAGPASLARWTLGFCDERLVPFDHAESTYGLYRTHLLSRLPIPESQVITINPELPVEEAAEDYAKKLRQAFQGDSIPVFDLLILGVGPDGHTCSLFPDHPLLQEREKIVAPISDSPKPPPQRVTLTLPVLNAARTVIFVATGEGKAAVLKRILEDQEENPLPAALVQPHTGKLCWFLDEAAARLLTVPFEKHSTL

[4] = molecular target: Cys residues in primary human T cells (Homo sapiens, UniProt P46109); conditions: CRKL C249 (P46109)
Sequence of Cys residues in primary human T cells (Homo sapiens, UniProt P46109) (P46109 whole entry): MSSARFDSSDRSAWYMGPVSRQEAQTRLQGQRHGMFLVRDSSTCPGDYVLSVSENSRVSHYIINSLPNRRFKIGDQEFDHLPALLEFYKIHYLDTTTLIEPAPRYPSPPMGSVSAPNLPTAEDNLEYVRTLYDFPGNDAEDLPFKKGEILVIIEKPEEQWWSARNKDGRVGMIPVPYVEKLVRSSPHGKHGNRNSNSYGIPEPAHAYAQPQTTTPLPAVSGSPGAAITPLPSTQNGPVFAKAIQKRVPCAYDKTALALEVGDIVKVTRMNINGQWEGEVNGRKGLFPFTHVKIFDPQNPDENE

[5] = molecular target: Cys residues in primary human T cells (Homo sapiens, UniProt Q14005); conditions: IL16 C1004 (Q14005)
Sequence of Cys residues in primary human T cells (Homo sapiens, UniProt Q14005) (Q14005 whole entry): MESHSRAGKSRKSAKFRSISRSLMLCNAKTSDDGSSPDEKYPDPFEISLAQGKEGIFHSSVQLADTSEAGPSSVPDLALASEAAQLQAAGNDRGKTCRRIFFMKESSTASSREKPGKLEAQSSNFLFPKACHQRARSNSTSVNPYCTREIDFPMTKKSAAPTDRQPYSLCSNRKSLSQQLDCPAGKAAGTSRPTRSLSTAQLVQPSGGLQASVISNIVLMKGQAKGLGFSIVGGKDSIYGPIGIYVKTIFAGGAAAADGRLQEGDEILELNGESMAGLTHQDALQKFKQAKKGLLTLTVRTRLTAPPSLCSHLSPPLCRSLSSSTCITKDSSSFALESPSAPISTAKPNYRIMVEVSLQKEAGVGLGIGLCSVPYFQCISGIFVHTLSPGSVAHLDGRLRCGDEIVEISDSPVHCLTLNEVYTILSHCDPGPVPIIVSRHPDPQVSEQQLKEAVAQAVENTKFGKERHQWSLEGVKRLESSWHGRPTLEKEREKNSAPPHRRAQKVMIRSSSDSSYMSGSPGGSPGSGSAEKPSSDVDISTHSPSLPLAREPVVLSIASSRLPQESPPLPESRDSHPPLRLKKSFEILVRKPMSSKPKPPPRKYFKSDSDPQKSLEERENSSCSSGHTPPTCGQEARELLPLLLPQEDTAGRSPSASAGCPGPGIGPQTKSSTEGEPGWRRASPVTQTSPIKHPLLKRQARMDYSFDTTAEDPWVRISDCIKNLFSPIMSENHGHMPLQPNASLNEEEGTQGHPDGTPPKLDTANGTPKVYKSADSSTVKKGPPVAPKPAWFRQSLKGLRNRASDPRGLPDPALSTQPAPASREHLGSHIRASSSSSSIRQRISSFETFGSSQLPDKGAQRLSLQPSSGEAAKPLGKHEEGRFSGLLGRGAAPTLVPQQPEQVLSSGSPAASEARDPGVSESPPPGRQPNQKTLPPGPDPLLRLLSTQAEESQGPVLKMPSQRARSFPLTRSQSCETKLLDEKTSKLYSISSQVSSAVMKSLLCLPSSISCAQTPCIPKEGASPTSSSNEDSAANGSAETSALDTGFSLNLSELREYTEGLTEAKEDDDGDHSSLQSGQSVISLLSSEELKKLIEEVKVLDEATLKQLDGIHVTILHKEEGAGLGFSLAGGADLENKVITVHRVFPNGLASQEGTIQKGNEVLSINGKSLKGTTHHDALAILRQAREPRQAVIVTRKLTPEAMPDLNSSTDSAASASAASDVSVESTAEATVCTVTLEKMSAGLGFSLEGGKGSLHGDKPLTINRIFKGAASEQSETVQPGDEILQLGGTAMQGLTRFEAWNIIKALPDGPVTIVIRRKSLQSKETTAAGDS

[6] = molecular target: Cys residues in primary human T cells (Homo sapiens, UniProt Q15005); conditions: SPCS2 C17 (Q15005)
Sequence of Cys residues in primary human T cells (Homo sapiens, UniProt Q15005) (Q15005 whole entry): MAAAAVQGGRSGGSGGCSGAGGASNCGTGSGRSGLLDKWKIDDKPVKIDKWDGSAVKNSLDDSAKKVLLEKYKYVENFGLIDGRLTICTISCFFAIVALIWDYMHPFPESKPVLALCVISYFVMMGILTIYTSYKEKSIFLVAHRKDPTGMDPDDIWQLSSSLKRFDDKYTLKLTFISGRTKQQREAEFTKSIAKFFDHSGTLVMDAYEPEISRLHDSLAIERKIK

[7] = molecular target: Cys residues in primary human T cells (Homo sapiens, UniProt Q86YS7); conditions: KIAA0528 C993 (Q86YS7)
Sequence of Cys residues in primary human T cells (Homo sapiens, UniProt Q86YS7) (Q86YS7 whole entry): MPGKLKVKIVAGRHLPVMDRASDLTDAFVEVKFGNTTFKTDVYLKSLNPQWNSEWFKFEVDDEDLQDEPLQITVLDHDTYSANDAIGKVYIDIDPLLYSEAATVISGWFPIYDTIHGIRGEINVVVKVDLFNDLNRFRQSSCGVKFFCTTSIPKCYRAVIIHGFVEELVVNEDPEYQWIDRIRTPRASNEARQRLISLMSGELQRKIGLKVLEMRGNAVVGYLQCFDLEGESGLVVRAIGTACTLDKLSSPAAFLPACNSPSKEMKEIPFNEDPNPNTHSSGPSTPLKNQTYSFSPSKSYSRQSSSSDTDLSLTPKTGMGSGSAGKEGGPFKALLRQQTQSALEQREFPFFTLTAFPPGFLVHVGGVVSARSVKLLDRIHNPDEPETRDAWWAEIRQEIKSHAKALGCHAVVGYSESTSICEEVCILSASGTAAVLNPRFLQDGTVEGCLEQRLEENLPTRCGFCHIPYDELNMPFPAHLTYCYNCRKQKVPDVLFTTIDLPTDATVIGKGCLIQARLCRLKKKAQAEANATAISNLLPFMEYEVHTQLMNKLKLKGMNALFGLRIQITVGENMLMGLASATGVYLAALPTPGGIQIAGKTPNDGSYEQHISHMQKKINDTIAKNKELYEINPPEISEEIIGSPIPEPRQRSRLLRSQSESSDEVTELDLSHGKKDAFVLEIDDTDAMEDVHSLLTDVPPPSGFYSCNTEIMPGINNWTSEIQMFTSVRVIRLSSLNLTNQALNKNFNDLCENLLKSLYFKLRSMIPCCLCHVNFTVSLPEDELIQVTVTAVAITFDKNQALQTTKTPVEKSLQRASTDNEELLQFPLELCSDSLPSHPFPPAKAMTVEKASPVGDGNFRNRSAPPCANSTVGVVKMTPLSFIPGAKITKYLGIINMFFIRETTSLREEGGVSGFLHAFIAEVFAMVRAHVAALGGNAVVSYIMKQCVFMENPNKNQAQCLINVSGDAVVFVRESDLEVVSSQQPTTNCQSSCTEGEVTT

[8] = molecular target: Cys residues in primary human T cells (Homo sapiens, UniProt Q8WXH0); conditions: SYNE2 C553 (Q8WXH0)
[9] = molecular target: T3, Cys residues in primary human T cells (Homo sapiens, UniProt Q9Y2W6); conditions: TDRKH C109 (Q9Y2W6)
T3 sequence (Q9Y2W6 1-561): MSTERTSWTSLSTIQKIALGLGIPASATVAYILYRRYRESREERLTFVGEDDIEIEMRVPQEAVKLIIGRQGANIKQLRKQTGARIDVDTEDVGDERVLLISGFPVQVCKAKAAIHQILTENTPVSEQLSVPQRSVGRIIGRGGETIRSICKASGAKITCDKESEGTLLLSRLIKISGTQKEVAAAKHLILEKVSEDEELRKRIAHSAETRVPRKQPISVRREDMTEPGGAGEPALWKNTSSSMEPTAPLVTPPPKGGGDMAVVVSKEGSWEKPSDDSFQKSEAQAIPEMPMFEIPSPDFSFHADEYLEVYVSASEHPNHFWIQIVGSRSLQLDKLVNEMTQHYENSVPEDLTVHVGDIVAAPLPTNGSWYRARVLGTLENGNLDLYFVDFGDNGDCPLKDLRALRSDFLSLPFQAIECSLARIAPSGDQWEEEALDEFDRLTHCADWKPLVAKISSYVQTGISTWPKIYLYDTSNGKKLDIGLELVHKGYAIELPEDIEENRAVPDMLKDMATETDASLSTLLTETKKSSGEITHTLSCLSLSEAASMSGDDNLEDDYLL

What does the source list for COC(=O)/C=C/C(=O)OC [DMF, dimethyl fumarate]?
R value (DMSO/DMF) ([1]; DMF 10 μM 4h): 2.59; R value (DMSO/DMF) ([1]; DMF 50 μM 1h): 3.96; R value (DMSO/DMF) ([1]; DMF 50 μM 2h): 10.12; R value (DMSO/DMF) ([1]; DMF 50 μM 4h): 20; R value (DMSO/DMF) ([2]; DMF 10 μM 4h): 1.49; R value (DMSO/DMF) ([2]; DMF 50 μM 1h): 2.44; R value (DMSO/DMF) ([2]; DMF 50 μM 2h): 2.92; R value (DMSO/DMF) ([2]; DMF 50 μM 4h): 12.55; R value (DMSO/DMF) ([3]; DMF 10 μM 4h): 1.9; R value (DMSO/DMF) ([3]; DMF 25 μM 4h): 5.32; R value (DMSO/DMF) ([3]; DMF 50 μM 1h): 3.42; R value (DMSO/DMF) ([3]; DMF 50 μM 2h): 9.49; R value (DMSO/DMF) ([3]; DMF 50 μM 4h): 11.51; R value (DMSO/DMF) ([4]; DMF 10 μM 4h): 1.38; R value (DMSO/DMF) ([4]; DMF 50 μM 1h): 2.21; R value (DMSO/DMF) ([4]; DMF 50 μM 2h): 3.21; R value (DMSO/DMF) ([4]; DMF 50 μM 4h): 4.86; R value (DMSO/DMF) ([5]; DMF 10 μM 4h): 1.37; R value (DMSO/DMF) ([5]; DMF 50 μM 1h): 1.95; R value (DMSO/DMF) ([5]; DMF 50 μM 2h): 3.32; R value (DMSO/DMF) ([5]; DMF 50 μM 4h): 4.13; R value (DMSO/DMF) ([6]; DMF 10 μM 4h): 1.42; R value (DMSO/DMF) ([6]; DMF 25 μM 4h): 2.41; R value (DMSO/DMF) ([6]; DMF 50 μM 1h): 2.25; R value (DMSO/DMF) ([6]; DMF 50 μM 2h): 3.86; R value (DMSO/DMF) ([6]; DMF 50 μM 4h): 5.09; R value (DMSO/DMF) ([7]; DMF 10 μM 4h): 1.4; R value (DMSO/DMF) ([7]; DMF 50 μM 4h): 4.38; R value (DMSO/DMF) ([8]; DMF 10 μM 4h): 1.61; R value (DMSO/DMF) ([8]; DMF 50 μM 2h): 3.29; R value (DMSO/DMF) ([8]; DMF 50 μM 4h): 4.05; R value (DMSO/DMF) ([9]; DMF 10 μM 4h): 2.34; R value (DMSO/DMF) ([9]; DMF 50 μM 1h): 4; R value (DMSO/DMF) ([9]; DMF 50 μM 2h): 20; R value (DMSO/DMF) ([9]; DMF 50 μM 4h): 20
